{
  "source": "patent US10807959B2",
  "about": "“WDR5-MLL1 inhibitors and modulators” (Vanderbilt University, priority 2018, dated 2020)",
  "molecular_target": "WDR5 (Homo sapiens (Human), UniProt P61964)",
  "experiment": "TR-FRET binding assay, displacement of 10mer-Thr-FAM probe from His-tagged WDR5",
  "description": "The LanthaScreenTM Elite Tb-anti-HIS Antibody from ThermoFisher Scientific was used for this purpose. […] The ratio of the 520 and 495 signals are then utilized to generate a dose-response curve to calculate an IC50 value. […] WDR[…] tag protein is used at 2 nM.",
  "key": {"[1]": {"conditions": "Inhibition of WDR5 by TR-FRET assay"}},
  "note": "Read-outs that look alike come from different tables or passages of the source.",
  "data": [
    {"smiles": "COc1ccnc(CNC(=O)c2cc(CNC3=NCCN3)cc(-c3cc(Cl)ccc3OC)c2)c1", "note": "[Example B116]", "values": [
      {"measurement": "Ki", "value": 0.106, "unit": "nM"}
    ]},
    {"smiles": "COc1cc(CN(C)C(=O)c2cc(Cn3ccnc3)cc(-c3ccc(F)nc3C)c2)cc(OC)c1", "note": "[Example 140, 3-((1H-Imidazol-1-yl)methyl)-N-(3,5-dimethoxybenzyl)-5-(6-fluoro-2-methylpyridin-3-yl)-N-methylbenzamide]", "values": [
      {"measurement": "Ki", "setting": "[1]", "value": 95, "unit": "nM"}
    ]},
    {"smiles": "COc1cc(OC)cc(C(C)NC(=O)c2cc(Cn3ccnc3C)cc(-c3ccc(F)c(C(N)=O)c3)n2)c1", "note": "(centres unmarked) [Example 161, 6-(3-Carbamoyl-4-fluorophenyl)-N-(1-(3,5-dimethoxyphenyl)ethyl)-4-((2-methyl-1H-imidazol-1-yl)methyl)picolinamide]", "values": [
      {"measurement": "Ki", "setting": "[1]", "value": "> 33", "unit": "nM"}
    ]},
    {"smiles": "COc1ccnc(CNC(=O)c2cc(CNC3=NCCN3)cc(-c3cc(C)c(F)cc3OC)c2)c1", "note": "[Example 50, 5-(((4,5-Dihydro-1H-imidazol-2-yl)amino)methyl)-4′-fluoro-2′-methoxy-N-((4-methoxypyridin-2-yl)methyl)-5′-methyl-[1,1′-biphenyl]-3-carboxamide]", "values": [
      {"measurement": "Ki", "setting": "[1]", "value": "< 0.1", "unit": "nM"}
    ]},
    {"smiles": "Cc1cc(C)cc(CNC(=O)c2cc(CNC3=NCCN3)cc(-c3ccc(F)nc3C)c2)c1", "note": "[Example 6, 3-(((4,5-Dihydro-1H-imidazol-2-yl)amino)methyl)-N-(3,5-dimethylbenzyl)-5-(6-fluoro-2-methylpyridin-3-yl)benzamide]", "values": [
      {"measurement": "Ki", "setting": "[1]", "value": 0.14, "unit": "nM"}
    ]},
    {"smiles": "COc1cc(CNC(=O)c2cc(CNC3=NCCN3)cc(-c3cnc(F)c(Cl)c3)c2)cc(OC)c1", "note": "[Example 35, 3-(5-Chloro-6-fluoropyridin-3-yl)-5-(((4,5-dihydro-1H-imidazol-2-yl)amino)methyl)-N-(3,5-dimethoxybenzyl)benzamide]", "values": [
      {"measurement": "Ki", "setting": "[1]", "value": 0.36, "unit": "nM"}
    ]},
    {"smiles": "Cc1ccnc(C(NC(=O)c2cc(CNC3=NCCN3)cc(-c3ccc(F)nc3C)c2)C2CC2)c1", "note": "(centres unmarked) [Example 9, N-(Cyclopropyl(4-methylpyridin-2-yl)methyl)-3-(((4,5-dihydro-1H-imidazol-2-yl)amino)methyl)-5-(6-fluoro-2-methylpyridin-3-yl)benzamide]", "values": [
      {"measurement": "Ki", "setting": "[1]", "value": "< 0.1", "unit": "nM"}
    ]},
    {"smiles": "Cc1ccc(CNC(=O)c2cc(CNC(=N)N)cc(-c3ccnc(C)c3)c2)cn1", "note": "[Example 104, 3-(guanidinomethyl)-N-((6-methylpyridin-3-yl)methyl)-5-(2-methylpyridin-4-yl)benzamide]", "values": [
      {"measurement": "Ki", "setting": "[1]", "value": 12, "unit": "nM"}
    ]},
    {"smiles": "Cc1nc(F)ccc1-c1cc(CNC2=NCCN2)cc(C(=O)NC(C2CC2)C2CC2)c1", "note": "[Example 10, N-(dicyclopropylmethyl)-3-(((4,5-dihydro-1H-imidazol-2-yl)amino)methyl)-5-(6-fluoro-2-methylpyridin-3-yl)benzamide]", "values": [
      {"measurement": "Ki", "setting": "[1]", "value": 2.9, "unit": "nM"}
    ]},
    {"smiles": "COc1cc(CNC(=O)c2cc(CNC3=NCCC3)cc(-c3ccncc3C)c2)cc(OC)c1", "note": "[Example 61, 3-(((3,4-Dihydro-2H-pyrrol-5-yl)amino)methyl)-N-(3,5-dimethoxybenzyl)-5-(3-methylpyridin-4-yl)benzamide]", "values": [
      {"measurement": "Ki", "setting": "[1]", "value": 1.8, "unit": "nM"}
    ]},
    {"smiles": "COc1ccnc(CNC(=O)c2cc(C)c(OC)c(Cn3ccnc3C)c2)c1", "note": "[Example 146, 4-Methoxy-N-((4-methoxypyridin-2-yl)methyl)-3-methyl-5-((2-methyl-1H-imidazol-1-yl)methyl)benzamide]", "values": [
      {"measurement": "Ki", "setting": "[1]", "value": 500, "unit": "nM"}
    ]},
    {"smiles": "Cc1cnc(CNC(=O)c2cc(CNC3=NCCN3)cc(-c3ccc(F)nc3C)c2)cn1", "note": "[Example 36, 3-(((4,5-dihydro-1H-imidazol-2-yl)amino)methyl)-5-(6-fluoro-2-methylpyridin-3-yl)-N-((5-methylpyrazin-2-yl)methyl)benzamide]", "values": [
      {"measurement": "Ki", "setting": "[1]", "value": 2.8, "unit": "nM"}
    ]},
    {"smiles": "Cc1cc(-c2cc(CNC3=NCCN3)cc(C(=O)NCc3nccc(C)n3)c2)ccn1", "note": "[Example 29, 3-(((4,5-Dihydro-1H-imidazol-2-yl)amino)methyl)-5-(2-methylpyridin-4-yl)-N-((4-methylpyrimidin-2-yl)methyl)benzamide]", "values": [
      {"measurement": "Ki", "setting": "[1]", "value": 13, "unit": "nM"}
    ]},
    {"smiles": "O=C(NCc1ccc(Cl)c(Cl)c1)c1cc(Cn2ccnc2)cc(C(F)(F)F)c1", "note": "[Example 141, 3-((1H-Imidazol-1-yl)methyl)-N-(3,4-dichlorobenzyl)-5-(trifluoromethyl)benzamide]", "values": [
      {"measurement": "Ki", "setting": "[1]", "value": 10, "unit": "nM"}
    ]},
    {"smiles": "Cc1ccncc1-c1cc(CNC2=NCCN2)cc(C(=O)NCc2ccc(Cl)c(Cl)c2)c1", "note": "[Example 12, N-(3,4-dichlorobenzyl)-3-(((4,5-dihydro-1H-imidazol-2-yl)amino)methyl)-5-(4-methylpyridin-3-yl)benzamide]", "values": [
      {"measurement": "Ki", "setting": "[1]", "value": "< 0.1", "unit": "nM"}
    ]},
    {"smiles": "COc1ccc(CNC(=O)c2cc(CNC3=NCCN3)cc(-c3cc(C)cnc3F)c2)cc1OC", "note": "[Example B107]", "values": [
      {"measurement": "Ki", "value": 0.0965, "unit": "nM"}
    ]},
    {"smiles": "Cc1cnc(CNC(=O)c2cc(CNC3=NCCN3)cc(-c3ccc(F)nc3C)n2)nc1", "note": "[Example 77, 4-(((4,5-Dihydro-1H-imidazol-2-yl)amino)methyl)-6′-fluoro-2′-methyl-N-((5-methylpyrimidin-2-yl)methyl)-[2,3′-bipyridine]-6-carboxamide]", "values": [
      {"measurement": "Ki", "setting": "[1]", "value": 33, "unit": "nM"}
    ]},
    {"smiles": "Cc1cc(-c2cc(CNC(=N)N)cc(C(=O)NCc3cc(F)cc(Cl)c3)c2)ccn1", "note": "[Example 100, N-(3-Chloro-5-fluorobenzyl)-3-(guanidinomethyl)-5-(2-methylpyridin-4-yl)benzamide]", "values": [
      {"measurement": "Ki", "setting": "[1]", "value": 2.4, "unit": "nM"}
    ]},
    {"smiles": "COc1cc(OC)cc(C(C)NC(=O)c2cc(CNC3=NCCN3)cc(-c3ccc(F)cc3C)c2)c1", "note": "(racemic) [Example 1, (±)-5-(((4,5-dihydro-1H-imidazol-2-yl)amino)methyl)-N-(1-(3,5-dimethoxyphenyl)ethyl)-4′-fluoro-2′-methyl-[1,1′-biphenyl]-3-carboxamide]", "values": [
      {"measurement": "Ki", "setting": "[1]", "value": 0.46, "unit": "nM"}
    ]},
    {"smiles": "Cc1nccn1Cc1cc(OC2CCC2)cc(C(=O)NCc2ccc(Cl)c(Cl)c2)c1", "note": "[Example 143, 3-Cyclobutoxy-N-(3,4-dichlorobenzyl)-5-((2-methyl-1H-imidazol-1-yl)methyl)benzamide]", "values": [
      {"measurement": "Ki", "setting": "[1]", "value": 0.43, "unit": "nM"}
    ]},
    {"smiles": "COc1cc(CNC(=O)c2cc(CNC3=NCCN3)cc(-c3cnccc3C)c2)ccc1Cl", "note": "[Example 18, N-(4-Chloro-3-methoxybenzyl)-3-(((4,5-dihydro-1H-imidazol-2-yl)amino)methyl)-5-(4-methylpyridin-3-yl)benzamide]", "values": [
      {"measurement": "Ki", "setting": "[1]", "value": 3.1, "unit": "nM"}
    ]},
    {"smiles": "COc1ccnc(CNC(=O)c2cc(CNC3=NCCN3)cc(-c3cnccc3C)c2)c1", "note": "[Example 19, 3-(((4,5-Dihydro-1H-imidazol-2-yl)amino)methyl)-N-((4-methoxypyridin-2-yl)methyl)-5-(4-methylpyridin-3-yl)benzamide]", "values": [
      {"measurement": "Ki", "setting": "[1]", "value": 0.45, "unit": "nM"}
    ]},
    {"smiles": "COc1cc(OC)cc(C(C)NC(=O)c2cc(CNC3=NC(=O)CN3C)cc(-c3ccc(F)nc3C)c2)c1", "note": "(centres unmarked) [Example 44, N-(1-(3,5-dimethoxyphenyl)ethyl)-3-(6-fluoro-2-methylpyridin-3-yl)-5-(((1-methyl-4-oxo-4,5-dihydro-1H-imidazol-2-yl)amino)methyl)benzamide]", "values": [
      {"measurement": "Ki", "setting": "[1]", "value": 17, "unit": "nM"}
    ]},
    {"smiles": "Cc1ccnc(C(NC(=O)c2cc(CNC3=NCCC3)cc(-c3ccc(F)cc3C)n2)C2CC2)c1", "note": "(centres unmarked) [Example 95, N-(Cyclopropyl(4-methylpyridin-2-yl)methyl)-4-(((3,4-dihydro-2H-pyrrol-5-yl)amino)methyl)-6-(4-fluoro-2-methylphenyl)picolinamide]", "values": [
      {"measurement": "Ki", "setting": "[1]", "value": 8.6, "unit": "nM"}
    ]},
    {"smiles": "Cc1cc(F)ccc1-c1cc(CNC2=NCCC2)cc(C(=O)NCc2ccc(Cl)c(Cl)c2)n1", "note": "[Example C22]", "values": [
      {"measurement": "Ki", "value": 0.132, "unit": "nM"}
    ]},
    {"smiles": "COc1cc(OC)cc(C(C)NC(=O)c2cc(CNC3=NCCC3)cc(-c3ccc(F)cc3C(F)(F)F)n2)c1", "note": "(centres unmarked) [Example 93, 4-(((3,4-dihydro-2H-pyrrol-5-yl)amino)methyl)-N-(1-(3,5-dimethoxyphenyl)ethyl)-6-(4-fluoro-2-(trifluoromethyl)phenyl)picolinamide]", "values": [
      {"measurement": "Ki", "setting": "[1]", "value": 3.3, "unit": "nM"}
    ]}
  ]
}
